Measured values reported in a melting point compilation (Tetko et al.; mined from patent text by program, amines drawn as free bases though some values may be those of a salt).

melting point | SMILES
183 to 185 °C | CCCCOC(=O)c1ccc2nc(N)[nH]c2c1
269 °C | CC(C)c1ccc(C(=O)C2=C(O)C(=O)N(c3ccc(OCc4ccccc4)nn3)C2c2ccc(OC(F)(F)F)cc2)cc1 (centres undefined)
110 to 111 °C | COc1cc2c(cc1OC)CN(C(=O)Cc1ccc([N+](=O)[O-])cc1)CC2
130 to 133 °C | CCn1c(=O)n(C)c(=O)c2c(C(=O)N3C[C@](C)(O)CO3)c(Cn3c(C)nc(Cl)c3Cl)sc21
179 to 180 °C | C=CCCc1ccc(NC(=O)OCc2ccccc2)c(O)n1
157 to 159 °C | CN(O)C(=O)c1ccc(CCCCc2ccc(C(=O)N(C)O)cc2)cc1
182 to 184 °C | CC(C)(C)Sc1c(CC(C)(C)C(=O)O)n(Cc2ccc(Cl)cc2)c2ccc(OCc3ccc(Cl)s3)cc12
68 to 72 °C | CCc1cccc(C)c1S(=O)(=O)c1nn(C(=O)N(CC)CC)cc1Cl
298 to 300 °C | Cc1cccc2nc(-c3ccccc3)n(C3CCC(=O)NC3=O)c(=O)c12 (centres undefined)
58 °C | CC(C)(C)C(=O)COc1ccc(Cl)cc1
112 to 113 °C | O=S(=O)(Nc1cccc(CCOCc2csc(-c3ccccc3)n2)c1)C(F)(F)F
111 to 112 °C | CCC(C(C)C)C1OC1C(C)C1CCC2C3CCC4=CC(=O)CCC4(C)C3CCC12C (centres undefined)
162 to 163 °C | Cc1cn(Cc2ccc(F)cc2)cc1C(=O)CC(=O)C(=O)O
206 to 208 °C | CCNC(=O)Nc1ccc(-c2sc3c(c2CN(C)CCOC)c(=O)n(-c2ccc(OCCOC)c(OCCOC)c2)c(=O)n3Cc2c(F)cccc2F)cc1
69 to 75 °C | CCCCNS(=O)(=O)c1ccc(N2CCC(NC[C@H](O)COc3cccc4[nH]c(=O)[nH]c34)CC2)cc1
181 to 185 °C | Nc1cccc(Cn2c(-c3ccc(-c4ccccc4)cc3)ccc2-c2ccccc2Cl)n1
246 to 248 °C | COc1ccc(-c2ccc(C(=O)Nc3ccc4cc(CN5CCCC5)cnc4c3)cn2)cc1
42 to 43 °C | COCOc1ccc(C=O)c2cccc(C)c12
60 to 65 °C | Cc1cc(Oc2ccnc(OC(F)F)c2)nc(Oc2ccnc(OC(F)F)c2)c1
54 °C | CN(C)[C@@H]1CN2C(=O)N(c3cc(Cl)cc(Cl)c3)C(=O)[C@@]2(Cc2ccc(Br)cc2)C1
161 to 162 °C | CC1(C)OC[C@H](COc2nc(S(C)(=O)=O)nc3[nH]nc(-c4ccccc4Cl)c23)O1
154 to 156 °C | COC(=O)c1ccc(C(=O)N[C@@H]2CCCC[C@@H]2c2ccc(OC)c(OC)c2)cc1
64 to 65 °C | CCN(CC)C(=O)c1ccc(OC)cc1-c1ccccc1

melting point | SMILES
173 to 175 °C | COc1cc(OC)c(C)c(C(=O)NCC23CC4CC(CC(Cl)(C4)C2)C3)c1
173 to 175 °C | CC(C)n1nc(-c2nc(Oc3ccc(F)cc3)c(N)nc2-c2ccccc2)ccc1=O
106 °C | CCOC(=O)C1CC(C)CCN1C(=O)c1ccc(Cl)c(C2(C)C(=O)N(Cc3ccc(OC)cc3OC)c3ccc(Cl)cc32)c1 (centres undefined)
142 to 145 °C | N#Cc1ccc(OCCCCCOc2cccc(-c3cc4cc(C#N)ccc4o3)c2)cc1
246 °C | COc1ccc(C(=O)Nc2ccc(F)cc2)c2c1oc1ccccc12
94 to 95 °C | OCCc1noc(Cc2ccc(-c3ccccc3)cc2)n1
> 280 °C | CC(C)Cc1c2c(nn1C)c(O)nc1ccccc12
129 to 131 °C | O=C(O)c1ccccc1C(=O)c1ccc(F)cc1F
266 to 270 °C | O[C@H]1CC[C@H](Nc2nccc(-c3n[nH]c4c(C(F)(F)F)cccc34)n2)CC1
233 to 237 °C | CS(=O)(=O)Nc1cccc(Nc2nc(NCCN3CCOCC3)c3nc[nH]c3n2)c1
168 to 170 °C | N#CCC(O)(c1ccc(-c2ccccc2)cc1)c1ccc(-c2ccccc2)cc1
212 to 214 °C | CCCc1nc2c(N)nc3ccccc3c2n1CCS(C)(=O)=O
138 to 145 °C | Nc1nc(-c2cc(Cl)ccc2Cl)nc(N2CC(O)CC2C(=O)O)n1 (centres undefined)
> 250 °C | CS(=O)(=O)Nc1cc2occ(C(N)=O)c(=O)c2cc1Oc1ccccc1
118 to 119 °C | CCCN(CCC)C(=O)Cc1cn(Cc2ccccc2Br)c2ccccc12
140 to 144 °C | Oc1ccc2c(c1)OC(CNCCCc1c[nH]c3ccc(O)cc13)CO2 (centres undefined)
137 to 139 °C | CCc1c(-c2ccc(OC)cc2)c2cc(C(C)=O)c3cc(OC)cc1n32
55 to 62 °C | CC(C)[C@H](C[C@H](O)[C@H](C)NC(=O)OC(C)(C)C)C(=O)NCCN
198 to 200 °C | CC(C)(C)c1cc2c(=O)[nH]cnc2o1
231 to 234 °C | N#Cc1ccc(Nn2cnnc2)cc1-c1ccc(F)cc1
158 to 160 °C | COc1ccccc1C(=O)Nc1ccc(N2CCOCC2)cc1C(C)=O
152 to 160 °C | CCOC(=O)c1ccc(N=C(Nc2ccc(C(=O)OCC)cc2)c2ccc(-c3ccccc3)cc2)cc1
55 to 58 °C | CCCCOc1ccc(S(=O)(=O)N2CC(NC[C@H](O)COc3ccc(O)cc3)C2)cc1

melting point | SMILES
33 to 34.5 °C | CCOC(=O)Sc1cc(C)nc(C(Cl)(Cl)Cl)n1
105 to 106 °C | C=CCN(CC=C)S(=O)(=O)c1ccc([N+](=O)[O-])cc1[N+](=O)[O-]
44 to 45 °C | CCCCCCCCCCC[C@@H](C[C@@H]1OC(=O)[C@H]1CCCCCC)OC(=O)[C@H](CC(C)C)NC=O
157 to 158 °C | CC1CCCN1Cc1ccc(N/C=C2\C(=O)NC(=O)c3ccc(I)cc32)cc1 (centres undefined)
119 to 126 °C | Cc1ccc(S(=O)(=O)Nc2ccc(-c3ccc(S(=O)(=O)n4ccc(C=CC(=O)NO)c4)cc3)cc2)cc1
124 to 128 °C | CCCc1nc(C)cn1-c1nc(OC)ccc1N
99 °C | CC(C)(C)c1cccc(S(=O)(=O)n2c(Cc3ccc(C(=O)NS(=O)(=O)c4ccccc4)cc3)cc3cc(C(F)(F)F)ccc32)c1
183 to 184 °C | COc1ccc(NC(=O)Nc2c(Cl)cncc2Cl)cc1OC1CCCC1
120 °C | CCC(C)OC(=O)CCC(S)(C#N)C1=NCCc2cc(OC)c(OC)cc21 (centres undefined)
158 to 160 °C | OC(Cc1ccncc1)(c1ccc(F)cc1)c1ccc(F)cc1
71 to 73 °C | CCOC(=O)c1sc(Oc2ccc(Cl)cc2Cl)nc1C
145 to 146 °C | CCOC(=O)C=C(C)Nc1c[nH]nc1-c1ccc(Cl)cc1
237 to 238 °C | Cc1ccc2c(c1)C(=O)N(CC(=O)N1c3ccccc3N(Cc3ccccc3)C(=O)[C@H]3CCC[C@H]31)C2=O (relative stereo)
160 °C | N#Cc1c[nH]nc1-c1ccccc1Cl
155 to 158 °C | C[C@@H]1C[C@@H]2c3cccc4c3N(CCNC4)[C@@H]2C1
164 to 167 °C | CC1(C)Cc2ccccc2C1NC=NC#N (centres undefined)
186 to 190 °C | Nc1nnc(-c2ccc(C(F)(F)F)cc2)cc1C(F)(F)F
217 to 218 °C | NC[C@@H]1CN(c2nc3c(cc2F)c(=O)c(C(=O)O)cn3C2CC2)C[C@@H]1F (relative stereo)
269 to 274 °C | O=S1(=O)c2cc(C=C(c3ccccc3)c3ccccc3)ccc2N(c2ccccc2)c2ccc(C=C(c3ccccc3)c3ccccc3)cc21
118 to 120 °C | CCOC(=O)c1nc(NCC(c2ccccc2)c2ccccc2)c2ncn([C@@H]3O[C@H](CO)[C@@H](O)[C@H]3O)c2n1
75 °C | O=C([C@@H](Cc1ccc(Cl)cc1)NC1CCOCC1)N1CCC(Cn2cncn2)(C2CCCCC2)CC1
130 to 132 °C | Cn1c(-c2ccc(OCC(O)CNC(C)(C)C)cc2)cc2ccccc2c1=O (centres undefined)
133 to 135 °C | CCOc1ccc(-c2c(C)c3cc(O)ccc3n2Cc2ccc(OCCN3CCCCCC3)cc2)cc1

melting point | SMILES
127 to 130 °C | CCC(=O)N1CCC(NC(=O)Nc2ccccc2F)CC1
147 to 151 °C | O=C(c1cccc2cc[nH]c12)N1CCN(c2cccc(C(F)(F)F)c2)CC1
198 to 199 °C | CC(=O)Nc1ccc(COc2cccc(C(N)=O)c2)cc1
164 to 165 °C | CCOC(=O)Cc1ccc(NC(=O)C(COc2cccc(Cl)c2)NS(=O)(=O)c2ccc(F)cc2)cc1 (racemic)
162 to 163 °C | COc1cc(/C(C#N)=C/c2ccc(C)c([N+](=O)[O-])c2)cc(OC)c1OC
143 to 144 °C | CC(C)(C)c1csc(-c2cc3cc(CO)ccc3o2)n1
117 to 120 °C | CCOC(=O)Cn1nc(-c2cc(C(C)(C)C)c(O)c(C(C)(C)C)c2)c2cccnc21
188 °C | O=C(Nc1cc(OCCCON=Cc2ccc(-c3ccccc3)cc2)ccc1C(=O)O)c1ccc(OC(F)(F)F)cc1
121 °C | CC(c1ccc(COCc2ccccc2)o1)N(O)C(N)=O (centres undefined)
160 to 162 °C | O=C(NCc1ccccc1)c1ccnc(NC(=O)c2cccs2)c1
105 to 109 °C | O=C(c1cccs1)c1scc(Br)c1Br
45 to 46 °C | COC(=O)Cc1ccc([N+](=O)[O-])cc1
235 °C | O=C(O)c1cc(=O)cc(-c2ccc(OCc3ccccc3)cc2)o1
63.5 to 66 °C | O=C1COCC2CCCN12 (centres undefined)
70 to 72 °C | BrCCCCOc1ccc(OCc2ccccc2)cc1
105 to 108 °C | Cn1ncc2c1CC(C)(C)c1cnn(C)c1-2
290 to 294 °C | Cc1nc(-c2ccc3c(c2)c(-c2cc4cccnc4[nH]2)cn3C)no1
176 °C | CC(=O)NC[C@H]1CN(c2ccc(N3CCN(c4ccc(C=O)o4)CC3)c(F)c2)C(=O)O1
146 to 148 °C | CCC(OCC(F)(F)F)c1ccc(Cl)c2nc3n(c12)CCCN3c1ccc(Cl)cc1Cl (centres undefined)
135 °C | O=S(=O)(c1ccc(Nc2nccc(Nc3ccc(F)cc3)n2)cc1)N(CCN1CCCC1)[C@H]1CC[C@H](O)CC1
145 to 146 °C | CC(C)(C)OC(=O)NC(C)(C)c1ccc(-c2ccno2)cc1
115 to 120 °C | COc1ccccc1NC(=O)Nc1nc(Nc2ccccc2-c2ccccc2)nc(N(CCC(=O)O)Cc2cccs2)n1

SMILES | melting point
CN1Cc2c(C#CC3CC3)ncn2-c2cccc(Cl)c2C1=O | 177 to 178 °C
CN1OCCN(c2ccc([N+](=O)[O-])c(C(F)(F)F)c2)C1=O | 104 to 105 °C
CC(CCN)P(C)(=O)O (centres undefined) | 68 to 75 °C
